Assay results taken from patent publication US8580842B2, “Heteroaryl-substituted 1,3-dihydroindol-2-one derivatives and medicaments containing them” (Abbott GmbH & Co. KG, priority 2003, dated 2013).

Key:
human V1b receptors = biological target: T1, human V1b receptors (Homo sapiens, UniProt P47901); assay: Vasopressin V1b receptor binding assay; conditions: membranes from CHO-K1 cells expressing human V1b receptors, displacement of 1.5 nM 3H-AVP; read-out: Binding affinity for the vasopressin V1b receptor
T1 construct: expressed in transfected cells; host or cells: CHO-K1 (membrane preparation V1b-3H2)
T1 sequence (P47901 1-424): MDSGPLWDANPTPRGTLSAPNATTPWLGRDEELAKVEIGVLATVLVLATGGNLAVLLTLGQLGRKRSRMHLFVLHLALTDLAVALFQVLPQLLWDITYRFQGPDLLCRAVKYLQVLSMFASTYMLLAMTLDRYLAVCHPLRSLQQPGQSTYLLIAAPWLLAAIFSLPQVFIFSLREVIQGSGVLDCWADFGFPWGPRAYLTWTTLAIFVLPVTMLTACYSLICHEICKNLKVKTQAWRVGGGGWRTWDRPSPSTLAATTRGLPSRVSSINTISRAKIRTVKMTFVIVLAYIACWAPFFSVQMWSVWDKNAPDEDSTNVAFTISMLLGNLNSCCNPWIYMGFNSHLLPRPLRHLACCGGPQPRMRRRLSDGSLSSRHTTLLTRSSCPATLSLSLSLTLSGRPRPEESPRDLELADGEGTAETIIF
Outline: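 Membranes from CHO-K1 cells stably expressing human V1b incubated with 1.5 nM ³H-AVP and test compound in 50 mM Tris, 10 mM MgCl2, 0.1% BSA, pH 7.4, 60 min at room temperature; non-specific binding with 10^−6 M AVP. Filtration and scintillation counting in triplicate; binding parameters by non-linear regression.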

Male Sprague Dawley rats = assay: Rat forced swim test; type: in vivo; conditions: ip; rat forced swim model, intraperitoneal route, three times before re-testing; read-out: ED50 (decrease of immobility time)
Text: Antidepressant Effects of Compounds of this Invention in the Rat Forced Swim Model
The potential antidepressant effects of some examples of this invention were examined in the rat forced swim test. When rats are forced to swim in a cylinder from which no escape is possible they readily adopt a characteristic immobile posture and make no further attempts to escape except for small movements needed to keep floating. The immobility is considered to reflect a ‘depressive mood’ (Porsolt R D, LePichon M, Jalfre M (1977). Depression: a new animal model sensitive to antidepressant treatment. Nature 266, 730-732.), in which animals cease to struggle to escape the aversive situation. The immobility induced by the procedure is influenced by a wide variety of antidepressants (Porsolt R D, Lenegre A, McArthur R A (1991). Pharmacological models of depression. In: Animal models in Psychopharmacology. B. Olivier, J. Mos, J. L. Slangen (eds) Birkhauser Verlag, Basel, pp. 137-159.) and has a good predictive validity in that it detects antidepressants with different mechanisms of action. Administration of antidepressants such as fluoxetine increases the time an animal struggles (decreases the immobility time) when forced to swim in a confined space. Lack of struggling is thought to represent a state of despair.
Procedure: Male Sprague Dawley rats (Janvier) weighing 160-200 gram (n=6) were placed individually into a glass water tank (40 cm×21.5 cm) filled with tap water (25° C.) up to 18 cm. This pre-test lasted for 15 min. Twenty-four hours later, animals were re-tested for 5 min in the same water tank while the total immobility time, swimming time and climbing time were recorded. Rats were considered immobile when they made no further attempts to escape, except for movements necessary to keep their heads above water (Porsolt R D, Anton G, Blavet N & Jalfre M. (1978). Behavioural despair in rats: a new model sensitive to antidepressant treatments. European Journal of Pharmacology 47, 379-391). The absence of hind limb movements was recorded as immobility using a stopwatch by a single observer. […]

| SMILES | Ki (human V1b receptors) | ED50 (Male Sprague Dawley rats) |
| --- | --- | --- |
| COc1ccc(S(=O)(=O)N2C(=O)C(c3cccnc3OC)(N3C[C@H](O)C[C@H]3C(=O)N(C)C)c3cc(Cl)ccc32)c(OC)c1 (single isomer, unassigned) [Example 5] | < 50 nM | < 30 mg/kg |
| COc1ccccc1C1(N2C[C@H](O)C[C@H]2C(=O)N(C)C)C(=O)N(S(=O)(=O)c2cccs2)c2ccc(Cl)cc21 (single isomer, unassigned) [Example 29] | < 50 nM | < 30 mg/kg |
| COc1ccc(S(=O)(=O)N2C(=O)[C@@](c3ccccc3OC)(N3C[C@H](O)C[C@H]3C(=O)N(C)C)c3cc(Cl)ccc32)c(OC)c1 [SSR149415, reference compound] |  | > 30 mg/kg |
